Source: article PMC5469273, “Discovery of Novel Small-Molecule Inhibitors of LIM Domain Kinase for Inhibiting HIV-1” (Journal of Virology, 2017)

Tests used:
CD4 = test: Surface staining of CD4 on CEM-SS T cells; type: cell-based, human; details: 100 μM
CXCR4 = test: Surface staining of CXCR4 on CEM-SS T cells; type: cell-based, human; details: 100 μM, 1 h
HIV-1(Vpr-β-lactamase) = test: BlaM-Vpr-based viral entry assay; type: cell-based; details: 100 μM; CEM-SS T cells
HIV-1(Env) [1] = test: 2-LTR circles by real-time PCR (nuclear migration) in CEM-SS T cells; type: cell-based
HIV-1(Env) [2] = type: cell-based
VEEV (TrD) = type: cell-based, Venezuelan equine encephalitis virus; details: Vero cells, MOI 0.1, 24 h
Vero cells = details: up to 100 μM R10015
BRAF = BRAF (Homo sapiens, UniProt P15056); test: Kinase profiling (Reaction Biology): BRAF
Chain of BRAF (P15056 whole entry): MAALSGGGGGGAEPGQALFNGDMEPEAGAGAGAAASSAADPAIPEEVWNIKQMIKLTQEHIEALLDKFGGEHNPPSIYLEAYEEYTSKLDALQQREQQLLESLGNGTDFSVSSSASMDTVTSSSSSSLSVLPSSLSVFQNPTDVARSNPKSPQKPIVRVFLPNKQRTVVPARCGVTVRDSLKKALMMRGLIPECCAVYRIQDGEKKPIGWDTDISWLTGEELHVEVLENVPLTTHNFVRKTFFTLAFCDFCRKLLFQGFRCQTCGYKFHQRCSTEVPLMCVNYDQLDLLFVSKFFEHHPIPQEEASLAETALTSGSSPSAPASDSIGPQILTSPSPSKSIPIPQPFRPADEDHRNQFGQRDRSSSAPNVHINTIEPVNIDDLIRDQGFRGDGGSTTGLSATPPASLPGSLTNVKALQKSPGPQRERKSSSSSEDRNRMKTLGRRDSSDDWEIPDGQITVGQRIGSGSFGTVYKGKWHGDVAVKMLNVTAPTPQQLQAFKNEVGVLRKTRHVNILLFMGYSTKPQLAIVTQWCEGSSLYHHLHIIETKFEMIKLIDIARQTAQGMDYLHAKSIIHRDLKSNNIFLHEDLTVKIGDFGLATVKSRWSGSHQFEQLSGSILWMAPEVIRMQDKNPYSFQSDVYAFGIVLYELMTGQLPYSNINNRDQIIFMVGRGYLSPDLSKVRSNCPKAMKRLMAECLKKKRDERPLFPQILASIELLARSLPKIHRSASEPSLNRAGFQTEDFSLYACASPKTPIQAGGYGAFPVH

CK1d = CK1d (Homo sapiens, UniProt P48730); test: Kinase profiling (Reaction Biology): CK1d
Chain of CK1d (P48730 whole entry): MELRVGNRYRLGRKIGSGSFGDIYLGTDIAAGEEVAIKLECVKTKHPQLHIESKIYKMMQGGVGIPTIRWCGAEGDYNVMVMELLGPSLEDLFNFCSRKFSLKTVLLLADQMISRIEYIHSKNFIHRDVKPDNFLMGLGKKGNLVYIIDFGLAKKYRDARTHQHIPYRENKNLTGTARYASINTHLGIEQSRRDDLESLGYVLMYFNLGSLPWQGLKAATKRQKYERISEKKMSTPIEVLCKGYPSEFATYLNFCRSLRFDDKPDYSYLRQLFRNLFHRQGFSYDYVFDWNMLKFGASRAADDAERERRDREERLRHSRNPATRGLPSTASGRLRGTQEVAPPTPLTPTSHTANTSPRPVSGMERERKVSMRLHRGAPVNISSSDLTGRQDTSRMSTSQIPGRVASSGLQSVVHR

CK2a = CK2a (Homo sapiens, UniProt P68400); test: Kinase profiling (Reaction Biology): CK2a
FLT3 = FLT3 (Homo sapiens, UniProt P36888); test: Kinase profiling (Reaction Biology): FLT3
Chain of FLT3 (P36888 27-993): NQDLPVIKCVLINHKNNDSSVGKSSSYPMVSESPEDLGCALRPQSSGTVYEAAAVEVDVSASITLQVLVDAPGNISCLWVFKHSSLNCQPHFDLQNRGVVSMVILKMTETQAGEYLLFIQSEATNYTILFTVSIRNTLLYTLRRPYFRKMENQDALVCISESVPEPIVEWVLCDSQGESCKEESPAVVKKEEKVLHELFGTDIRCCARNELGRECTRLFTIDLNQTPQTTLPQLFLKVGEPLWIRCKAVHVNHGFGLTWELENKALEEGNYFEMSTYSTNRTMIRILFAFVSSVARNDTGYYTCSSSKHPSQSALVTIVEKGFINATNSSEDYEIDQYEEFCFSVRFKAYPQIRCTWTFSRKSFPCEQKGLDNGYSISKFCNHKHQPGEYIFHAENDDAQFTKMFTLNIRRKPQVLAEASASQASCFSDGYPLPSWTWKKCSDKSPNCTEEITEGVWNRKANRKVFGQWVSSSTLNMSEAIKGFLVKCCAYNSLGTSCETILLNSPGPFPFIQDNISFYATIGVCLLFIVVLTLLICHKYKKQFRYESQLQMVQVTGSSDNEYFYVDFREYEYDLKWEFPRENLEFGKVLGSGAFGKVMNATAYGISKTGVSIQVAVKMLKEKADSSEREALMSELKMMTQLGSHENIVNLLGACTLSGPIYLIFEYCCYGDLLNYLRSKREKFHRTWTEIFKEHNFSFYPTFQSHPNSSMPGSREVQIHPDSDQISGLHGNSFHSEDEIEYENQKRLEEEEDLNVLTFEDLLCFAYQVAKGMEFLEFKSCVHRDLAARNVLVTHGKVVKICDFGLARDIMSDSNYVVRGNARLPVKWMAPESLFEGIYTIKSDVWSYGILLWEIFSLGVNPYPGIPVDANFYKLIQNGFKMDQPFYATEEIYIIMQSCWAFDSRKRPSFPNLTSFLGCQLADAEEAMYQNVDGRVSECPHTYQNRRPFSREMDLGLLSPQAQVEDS

JNK3 = JNK3 (Homo sapiens, UniProt P53779); test: Kinase profiling (Reaction Biology): JNK3
MEK1 = MEK1 (Homo sapiens, UniProt Q02750); test: Kinase profiling (Reaction Biology): MEK1
PKCa = PKCa (Homo sapiens, UniProt P17252); test: Kinase profiling (Reaction Biology): PKCa
PLK2 = PLK2 (Homo sapiens, UniProt Q9NYY3); test: Kinase profiling (Reaction Biology): PLK2
SGK1 = SGK1 (Homo sapiens, UniProt O00141); test: Kinase profiling (Reaction Biology): SGK1
Chain of SGK1 (O00141 whole entry): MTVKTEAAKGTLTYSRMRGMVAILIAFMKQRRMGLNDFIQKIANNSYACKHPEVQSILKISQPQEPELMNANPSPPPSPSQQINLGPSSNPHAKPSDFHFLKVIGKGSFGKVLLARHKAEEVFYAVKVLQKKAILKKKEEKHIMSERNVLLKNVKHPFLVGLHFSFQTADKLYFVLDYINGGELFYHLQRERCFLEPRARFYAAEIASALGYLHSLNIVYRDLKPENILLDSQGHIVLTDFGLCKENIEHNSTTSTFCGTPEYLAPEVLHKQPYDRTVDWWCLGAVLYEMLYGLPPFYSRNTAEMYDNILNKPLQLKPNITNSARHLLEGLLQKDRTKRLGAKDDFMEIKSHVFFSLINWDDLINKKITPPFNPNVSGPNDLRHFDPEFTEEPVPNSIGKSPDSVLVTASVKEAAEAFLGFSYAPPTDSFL

TLK1 = TLK1 (Homo sapiens, UniProt Q9UKI8); test: Kinase profiling (Reaction Biology): TLK1
WEE1 = WEE1 (Homo sapiens, UniProt P30291); test: Kinase profiling (Reaction Biology): WEE1
c-Kit = c-Kit (Homo sapiens, UniProt P10721); test: Kinase profiling (Reaction Biology): c-Kit
FGFR1 = FGFR1 (Homo sapiens, UniProt P11362); test: Kinase profiling (Reaction Biology): FGFR1
IGF1R = IGF1R (Homo sapiens, UniProt P08069); test: Kinase profiling (Reaction Biology): IGF1R
STK33 = STK33 (Homo sapiens, UniProt Q9BYT3); test: Kinase profiling (Reaction Biology): STK33
Jurkat T cells = test: SDF-1-mediated chemotaxis assay (transwell); details: Homo sapiens, 2 h, read-out: IC50, inhibition of Jurkat T cell chemotaxis, SDF-1 40 ng/ml, 2 h, transwell
resting CD4 T cells = test: FITC-phalloidin staining of F-actin after SDF-1; details: 100 μM pretreatment, FITC-phalloidin flow cytometry
LRRK2 (G2019S) = LRRK2 (G2019S) (Homo sapiens, UniProt Q5S007, G2019S); test: Kinase profiling (Reaction Biology): LRRK2 (G2019S)
Chain of LRRK2 (G2019S) (Q5S007 whole entry G2019S): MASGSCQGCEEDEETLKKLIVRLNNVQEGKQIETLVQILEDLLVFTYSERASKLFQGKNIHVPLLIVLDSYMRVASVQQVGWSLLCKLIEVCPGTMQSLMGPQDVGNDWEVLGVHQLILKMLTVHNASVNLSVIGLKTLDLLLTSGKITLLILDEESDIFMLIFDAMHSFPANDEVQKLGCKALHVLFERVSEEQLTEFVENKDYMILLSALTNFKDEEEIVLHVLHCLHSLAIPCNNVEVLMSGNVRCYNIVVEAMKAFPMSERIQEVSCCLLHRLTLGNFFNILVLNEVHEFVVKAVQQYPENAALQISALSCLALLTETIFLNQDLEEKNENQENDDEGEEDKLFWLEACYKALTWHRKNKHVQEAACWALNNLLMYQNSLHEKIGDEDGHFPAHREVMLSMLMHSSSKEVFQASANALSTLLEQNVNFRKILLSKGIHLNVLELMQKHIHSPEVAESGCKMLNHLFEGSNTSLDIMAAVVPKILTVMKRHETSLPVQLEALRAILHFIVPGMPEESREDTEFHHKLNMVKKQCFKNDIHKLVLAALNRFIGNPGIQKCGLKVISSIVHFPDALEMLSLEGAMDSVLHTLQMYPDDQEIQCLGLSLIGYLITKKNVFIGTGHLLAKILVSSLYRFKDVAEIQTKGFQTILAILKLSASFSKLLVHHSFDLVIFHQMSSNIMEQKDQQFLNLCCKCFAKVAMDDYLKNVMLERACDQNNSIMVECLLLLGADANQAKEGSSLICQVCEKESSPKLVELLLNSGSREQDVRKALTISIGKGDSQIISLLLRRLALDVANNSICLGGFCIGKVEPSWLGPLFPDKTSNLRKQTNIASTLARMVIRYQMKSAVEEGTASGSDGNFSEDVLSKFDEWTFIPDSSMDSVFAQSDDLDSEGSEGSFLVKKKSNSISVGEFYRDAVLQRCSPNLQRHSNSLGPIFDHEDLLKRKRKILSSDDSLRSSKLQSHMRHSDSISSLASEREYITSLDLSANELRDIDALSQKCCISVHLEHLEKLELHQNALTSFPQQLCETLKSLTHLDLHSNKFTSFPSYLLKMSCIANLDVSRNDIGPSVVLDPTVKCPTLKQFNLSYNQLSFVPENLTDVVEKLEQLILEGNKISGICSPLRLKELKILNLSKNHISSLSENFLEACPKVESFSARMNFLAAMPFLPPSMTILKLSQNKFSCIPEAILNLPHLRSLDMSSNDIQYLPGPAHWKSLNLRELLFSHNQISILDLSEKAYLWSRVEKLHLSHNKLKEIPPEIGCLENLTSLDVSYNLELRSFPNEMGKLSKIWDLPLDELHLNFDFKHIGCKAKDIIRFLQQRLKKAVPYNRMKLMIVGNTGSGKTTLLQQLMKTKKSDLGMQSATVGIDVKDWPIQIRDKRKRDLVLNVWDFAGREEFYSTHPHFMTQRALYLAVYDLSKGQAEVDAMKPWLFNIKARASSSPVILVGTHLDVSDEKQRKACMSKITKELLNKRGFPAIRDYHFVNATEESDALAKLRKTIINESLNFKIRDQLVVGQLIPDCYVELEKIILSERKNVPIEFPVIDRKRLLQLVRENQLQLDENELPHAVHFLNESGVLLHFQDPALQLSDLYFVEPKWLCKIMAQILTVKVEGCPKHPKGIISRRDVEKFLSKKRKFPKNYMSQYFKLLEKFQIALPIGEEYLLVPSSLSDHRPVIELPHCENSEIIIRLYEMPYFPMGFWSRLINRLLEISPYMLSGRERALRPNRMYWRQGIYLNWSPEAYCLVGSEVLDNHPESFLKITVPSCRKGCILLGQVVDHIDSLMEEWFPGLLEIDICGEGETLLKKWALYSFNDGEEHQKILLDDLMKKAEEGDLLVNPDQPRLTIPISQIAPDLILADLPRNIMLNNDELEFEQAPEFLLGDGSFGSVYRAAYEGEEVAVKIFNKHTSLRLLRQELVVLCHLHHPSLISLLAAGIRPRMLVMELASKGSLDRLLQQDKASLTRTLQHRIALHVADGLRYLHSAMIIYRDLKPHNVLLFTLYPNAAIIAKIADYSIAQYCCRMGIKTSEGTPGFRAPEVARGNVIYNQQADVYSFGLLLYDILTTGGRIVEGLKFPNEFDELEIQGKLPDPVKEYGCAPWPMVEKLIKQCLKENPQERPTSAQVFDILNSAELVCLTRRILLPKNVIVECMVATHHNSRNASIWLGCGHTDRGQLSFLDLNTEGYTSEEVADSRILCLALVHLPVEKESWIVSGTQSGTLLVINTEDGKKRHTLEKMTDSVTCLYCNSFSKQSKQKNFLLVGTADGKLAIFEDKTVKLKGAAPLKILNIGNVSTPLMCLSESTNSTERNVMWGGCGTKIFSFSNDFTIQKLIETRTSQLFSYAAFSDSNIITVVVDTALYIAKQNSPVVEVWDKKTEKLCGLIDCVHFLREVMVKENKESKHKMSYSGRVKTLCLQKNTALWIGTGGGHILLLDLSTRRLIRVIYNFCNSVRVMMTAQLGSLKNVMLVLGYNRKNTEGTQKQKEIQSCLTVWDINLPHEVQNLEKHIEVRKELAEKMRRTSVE

p-cofilin = test: Intracellular p-cofilin staining and flow cytometry in CEM-SS T cells; details: 100 μM, 1 h, 0 h: 20.6%
LIMK1 = LIMK1 (Homo sapiens, UniProt P53667); test: LIMK1 biochemical assay, 10-dose IC50; design: purified from insect cells; His; purchased Reaction Biology Corporation, Malvern, PA; host or cells: insect cells (coexpressed with ROCK1); details: purified LIMK1; 10 μM ATP, 1 μM cofilin; ≥2 in vitro kinase assays; read-out: LIMK1 Biochemical Inhibition IC50
Source text: We selected R10015 from the potential LIMK inhibitors for further detailed mechanistic studies. The synthesis, purification, and biochemical characterization of R10015 are described in Materials and Methods below and shown in Fig. 3. We performed a cell-free assay to measure R10015 inhibition of the LIM domain kinase using purified human LIMK1 and its substrate, cofilin. […] We also performed profiling of R10015 against a panel of 62 kinases (Table 2).
Biochemical LIMK1 assays for all inhibitors were carried out by Reaction Biology Corporation, Malvern, PA, and followed the protocols described on its website. […] Reactions were carried out at 10 μM ATP, 1 μM substrate (cofilin), and 50 nM LIMK1 (final concentrations). […] The reagents were as follows: base reaction buffer, 20 mM HEPES (pH 7.5), 10 mM MgCl2, 1 mM EGTA, 0.02% Brij 35, 0.02 mg/ml bovine serum albumin (BSA), 0.1 mM Na3VO4, 2 mM dithiothreitol (DTT), 1% DMSO. No additional cofactors were added to the reaction mixture. The reaction procedures were as follows. (i) The indicated substrate was prepared in freshly made base reaction buffer. (ii) Any required cofactors were delivered to the substrate solution described above. (iii) The indicated kinase was delivered into the substrate solution and gently mixed. (iv) The compounds in DMSO were delivered into the kinase reaction mixture. (v) [^33P]ATP (final specific activity, 0.01 μCi/μl) was delivered into the reaction mixture to initiate the reaction. […] (viii) The filters were washed extensively in 0.1% phosphoric acid.

## COC(=O)c1ccc2[nH]c(C3CCN(c4ncnc5[nH]cc(Cl)c45)CC3)nc2c1 [Compound R10015, Methyl 2-(1-(5-chloro-7H-pyrrolo[2,3-d]pyrimidin-4-yl)piperidin-4-yl)-1H-benzo[d]imidazole-5-carboxylate]
CD4; 1 h
  surface expression of CD4: did not alter
CD4; prolonged treatment 4 h
  surface density of CD4: slightly decreased
CXCR4
  surface expression of CXCR4: did not alter
HIV-1(Vpr-β-lactamase)
  viral entry, HIV-1(Vpr-β-lactamase): did not significantly inhibit
HIV-1(Env) [1]
  viral nuclear migration (2-LTR circles): inhibited
HIV-1(Env) [2]
  p24 release (virion release): inhibited
VEEV (TrD)
  inhibition of VEEV (TrD): 2 log units
Vero cells
  drug toxicity: No drug toxicity
BRAF
  activity at 1 µM: 91.9%
CK1d
  activity at 1 µM: 85%
CK2a
  activity at 1 µM: 94.2%
FLT3
  activity at 1 µM: 32.2%
FLT3; read-out: inhibition of FLT3
  inhibition at 1 µM: ~68%
JNK3
  activity at 1 µM: 85.7%
MEK1
  activity at 1 µM: 75.6%
PKCa
  activity at 1 µM: 47.5%
PLK2
  activity at 1 µM: 103%
SGK1
  activity at 1 µM: 61%
TLK1
  activity at 1 µM: 98.5%
WEE1
  activity at 1 µM: 97.2%
c-Kit
  activity at 1 µM: 81.3%
FGFR1
  activity at 1 µM: 86.5%
IGF1R
  activity at 1 µM: 90%
STK33
  activity at 1 µM: 56.5%
Jurkat T cells
  IC50: ~10 µM
Resting CD4 T cells
  SDF-1-mediated actin polymerization: markedly depressed
LRRK2 (G2019S)
  activity at 1 µM: 6.7%
LRRK2 (G2019S); read-out: inhibition of LRRK2
  inhibition at 1 µM: ≥ 90%
p-cofilin
  P-cofilin, lower gate (cells staining low): 80%
LIMK1
  IC50: 0.038 ± 0.005 µM
